How the values were obtained:
c-Kit kinase = c-Kit kinase (Homo sapiens, UniProt P10721); assay: c-Kit kinase biochemical activity assay (AlphaScreen, biotin-(E4Y)10 phosphorylation); conditions: 100 μM ATP; read-out: Biochemical Inhibition IC50 Kit
How it was run: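 AlphaScreen read-out (streptavidin donor, anti-phosphotyrosine PY20 acceptor beads, EDTA stop) of c-Kit activity. Reaction: 0.75 ng kinase, 100 µM ATP, 30 nM biotin-(E4Y)10, 25 mM HEPES pH 7.5, 2 mM MgCl2, 2 mM MnCl2, 5% DMSO, 1 h room temperature. IC50 derived over an 8-point, two-fold dilution series.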

CYP2C9 = CYP2C9 (Homo sapiens, UniProt P11712); assay: CYP2C9 inhibition (fluorescent substrate MFC); type: in vitro ADME; conditions: read-out: Cyp IC50 2C9
How it was run: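 Test compound titrated 1:1 across ten concentrations; metabolite fluorescence measured after 37 °C incubation of 15 min (CYP1A2), 30 min (CYP2C19, CYP2D6) or 45 min (CYP2C9). IC50 from signal versus concentration.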

Sequence of CYP2C9 (P11712 whole entry): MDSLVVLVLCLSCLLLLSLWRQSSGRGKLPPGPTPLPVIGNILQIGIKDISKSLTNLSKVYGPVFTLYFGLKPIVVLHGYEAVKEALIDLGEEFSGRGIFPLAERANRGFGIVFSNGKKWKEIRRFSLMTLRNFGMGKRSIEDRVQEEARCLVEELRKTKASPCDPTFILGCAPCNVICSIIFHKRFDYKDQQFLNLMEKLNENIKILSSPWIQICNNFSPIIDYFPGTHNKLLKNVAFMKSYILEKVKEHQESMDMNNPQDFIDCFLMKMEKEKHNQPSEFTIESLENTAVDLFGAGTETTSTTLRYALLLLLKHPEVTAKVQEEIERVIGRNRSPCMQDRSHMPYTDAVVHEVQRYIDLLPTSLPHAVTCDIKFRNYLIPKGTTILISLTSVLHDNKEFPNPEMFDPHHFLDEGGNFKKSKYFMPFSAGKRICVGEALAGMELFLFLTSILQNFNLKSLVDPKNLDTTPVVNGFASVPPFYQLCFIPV
Sequence of c-Kit kinase (P10721 26-976): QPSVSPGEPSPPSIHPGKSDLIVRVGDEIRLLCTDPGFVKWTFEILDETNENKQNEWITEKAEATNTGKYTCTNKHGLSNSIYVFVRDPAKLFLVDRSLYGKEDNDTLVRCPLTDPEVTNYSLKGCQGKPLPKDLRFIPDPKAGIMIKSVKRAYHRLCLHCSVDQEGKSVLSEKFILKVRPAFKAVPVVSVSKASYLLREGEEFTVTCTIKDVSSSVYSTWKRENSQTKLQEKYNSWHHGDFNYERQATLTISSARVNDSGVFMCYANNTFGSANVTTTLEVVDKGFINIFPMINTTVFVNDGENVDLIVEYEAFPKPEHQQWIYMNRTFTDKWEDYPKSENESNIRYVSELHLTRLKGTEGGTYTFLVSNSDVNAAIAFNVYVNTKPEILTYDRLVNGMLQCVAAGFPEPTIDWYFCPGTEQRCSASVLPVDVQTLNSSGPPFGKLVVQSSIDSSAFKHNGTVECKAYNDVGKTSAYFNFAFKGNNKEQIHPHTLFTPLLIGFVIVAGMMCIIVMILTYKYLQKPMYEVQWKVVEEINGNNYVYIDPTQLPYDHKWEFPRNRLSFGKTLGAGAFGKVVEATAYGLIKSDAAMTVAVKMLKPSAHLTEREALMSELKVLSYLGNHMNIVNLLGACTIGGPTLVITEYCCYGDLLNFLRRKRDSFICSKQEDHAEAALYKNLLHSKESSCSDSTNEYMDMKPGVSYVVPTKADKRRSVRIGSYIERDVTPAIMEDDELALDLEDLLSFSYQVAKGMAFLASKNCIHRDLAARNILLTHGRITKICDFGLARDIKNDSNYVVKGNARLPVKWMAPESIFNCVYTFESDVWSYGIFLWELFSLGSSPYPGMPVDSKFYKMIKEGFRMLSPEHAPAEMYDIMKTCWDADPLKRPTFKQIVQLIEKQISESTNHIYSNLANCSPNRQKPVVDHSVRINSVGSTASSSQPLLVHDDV

IC50 (c-Kit kinase) [µM]	IC50 (CYP2C9) [µM]	SMILES
< 0.01	> 10	Cc1cnc2[nH]cc(Cc3cnc(Nc4ccc(C(F)(F)F)nc4)nc3)c2c1 [Compound P-3018, [5-(5-Methyl-1H-pyrrolo[2,3-b]pyridin-3-ylmethyl)-pyrimidin-2-yl]-(6-trifluoromethyl-pyridin-3-yl)-amine]
< 1	> 10	COc1ccc(Nc2ccc(Cc3c[nH]c4ncc(C)cc34)c(F)n2)cn1 [Compound P-3019, [6-fluoro-5-(5-methyl-1H-pyrrolo[2,3-b]pyridin-3-ylmethyl)-pyridin-2-yl]-(6-methoxy-pyridin-3-yl)-amine]
< 0.1	> 10	CCOc1ccc(Nc2ccc(Cc3c[nH]c4ncc(C)cc34)c(F)n2)cn1 [Compound P-3039, (6-ethoxy-pyridin-3-yl)-[6-fluoro-5-(5-methyl-1H-pyrrolo[2,3-b]pyridin-3-ylmethyl)-pyridin-2-yl]-amine]
> 1	> 10	COc1ccc(Nc2ccc(C(=O)c3c[nH]c4ncc(C)cc34)c(F)n2)cn1 [Compound P-3040, [2-Fluoro-6-(6-methoxy-pyridin-3-ylamino)-pyridin-3-yl]-(5-methyl-1H-pyrrolo[2,3-b]pyridin-3-yl)-methanone]
< 1	> 10	Cc1cnc2[nH]cc(Cc3ccc(Nc4ccc(C)nc4)nc3F)c2c1 [Compound P-3041, [6-Fluoro-5-(5-methyl-1H-pyrrolo[2,3-b]pyridin-3-ylmethyl)-pyridin-2-yl]-(6-methyl-pyridin-3-yl)-amine]
< 1	> 10	Cc1cnc2[nH]cc(C(=O)c3ccc(Nc4ccc(C)nc4)nc3F)c2c1 [Compound P-3043, [2-Fluoro-6-(6-methyl-pyridin-3-ylamino)-pyridin-3-yl]-(5-methyl-1H-pyrrolo[2,3-b]pyridin-3-yl)-methanone]
< 1	> 10	Cc1ccc(Nc2ccc(C(=O)c3c[nH]c4ncc(Cl)cc34)c(F)n2)cn1 [Compound P-3044, (5-Chloro-1H-pyrrolo[2,3-b]pyridin-3-yl)-[2-fluoro-6-(6-methyl-pyridin-3-ylamino)-pyridin-3-yl]-methanone]
< 0.1	> 10	CCc1ccc(Nc2ccc(Cc3c[nH]c4ncc(C)cc34)c(F)n2)cn1 [Compound P-3048, (6-Ethyl-pyridin-3-yl)-[6-fluoro-5-(5-methyl-1H-pyrrolo[2,3-b]pyridin-3-ylmethyl)-pyridin-2-yl]-amine]
< 0.1	> 10	CCc1ccc(Nc2ccc(C(=O)c3c[nH]c4ncc(C)cc34)c(F)n2)cn1 [Compound P-3049, [6-(6-Ethyl-pyridin-3-ylamino)-2-fluoro-pyridin-3-yl]-(5-methyl-1H-pyrrolo[2,3-b]pyridin-3-yl)-methanone]
< 0.1	> 10	Cc1cnc2[nH]cc(Cc3ccc(Nc4ccc(C5CC5)nc4)nc3F)c2c1 [Compound P-3050, (6-Cyclopropyl-pyridin-3-yl)-[6-fluoro-5-(5-methyl-1H-pyrrolo[2,3-b]pyridin-3-ylmethyl)-pyridin-2-yl]-amine]
< 0.1	> 10	Cc1cnc2[nH]cc(C(=O)c3ccc(Nc4ccc(C5CC5)nc4)nc3F)c2c1 [Compound P-3051, [6-(6-Cyclopropyl-pyridin-3-ylamino)-2-fluoro-pyridin-3-yl]-(5-methyl-1H-pyrrolo[2,3-b]pyridin-3-yl)-methanone]
< 0.1	5 to 10	O=C(c1ccc(Nc2ccc(C3CC3)nc2)nc1F)c1c[nH]c2ncccc12 [Compound P-3052, [6-(6-Cyclopropyl-pyridin-3-ylamino)-2-fluoro-pyridin-3-yl]-(1H-pyrrolo[2,3-b]pyridin-3-yl)-methanone]
< 0.1	> 10	Fc1nc(Nc2ccc(C3CC3)nc2)ccc1Cc1c[nH]c2ncccc12 [Compound P-3053, (6-Cyclopropyl-pyridin-3-yl)-[6-fluoro-5-(1H-pyrrolo[2,3-b]pyridin-3-ylmethyl)-pyridin-2-yl]-amine]
< 1	> 10	COc1ccc(Nc2ccc(Cc3c[nH]c4ncnc(OC)c34)c(F)n2)cn1 [Compound P-4001, [6-Fluoro-5-(4-methoxy-7H-pyrrolo[2,3-d]pyrimidin-5-ylmethyl)-pyridin-2-yl]-(6-methoxy-pyridin-3-yl)-amine]
< 1	> 10	COc1ccc(Nc2ccc(Cc3c[nH]c4ncnc(C)c34)c(F)n2)cn1 [Compound P-4002, [6-Fluoro-5-(4-methyl-7H-pyrrolo[2,3-d]pyrimidin-5-ylmethyl)-pyridin-2-yl]-(6-methoxy-pyridin-3-yl)-amine]
< 1	> 10	COc1ncnc2[nH]cc(Cc3ccc(Nc4ccc(Cl)nc4)nc3F)c12 [Compound P-4003, (6-Chloro-pyridin-3-yl)-[6-fluoro-5-(4-methoxy-7H-pyrrolo[2,3-d]pyrimidin-5-ylmethyl)-pyridin-2-yl]-amine]
< 0.1	> 10	COc1ncnc2[nH]cc(Cc3ccc(Nc4ccc(C5CC5)nc4)nc3F)c12 [Compound P-4004, (6-Cyclopropyl-pyridin-3-yl)-[6-fluoro-5-(4-methoxy-7H-pyrrolo[2,3-d]pyrimidin-5-ylmethyl)-pyridin-2-yl]-amine]
< 0.1	> 10	CCOc1ccc(Nc2ccc(Cc3c[nH]c4ncnc(OC)c34)c(F)n2)cn1 [Compound P-4005, (6-Ethoxy-pyridin-3-yl)-[6-fluoro-5-(4-methoxy-7H-pyrrolo[2,3-d]pyrimidin-5-ylmethyl)-pyridin-2-yl]-amine]
< 0.1	> 10	CCOc1ccc(Nc2ccc(Cc3c[nH]c4ncnc(C)c34)c(F)n2)cn1 [Compound P-4006, (6-Ethoxy-pyridin-3-yl)-[6-fluoro-5-(4-methyl-7H-pyrrolo[2,3-d]pyrimidin-5-ylmethyl)-pyridin-2-yl]-amine]
< 0.1	> 10	CCc1ccc(Nc2ccc(Cc3c[nH]c4ncnc(OC)c34)c(F)n2)cn1 [Compound P-4007, (6-Ethyl-pyridin-3-yl)-[6-fluoro-5-(4-methoxy-7H-pyrrolo[2,3-d]pyrimidin-5-ylmethyl)-pyridin-2-yl]-amine]
< 1	> 10	CCOc1ccc(Nc2ccc(Cc3c[nH]c4ncnc(OCCOC)c34)c(F)n2)cn1 [Compound P-4008, (6-Ethoxy-pyridin-3-yl)-{6-fluoro-5-[4-(2-methoxy-ethoxy)-7H-pyrrolo[2,3-d]pyrimidin-5-ylmethyl]-pyridin-2-yl}-amine]
< 0.1	> 10	CCc1ccc(Nc2ccc(Cc3c[nH]c4ncnc(C)c34)c(F)n2)cn1 [Compound P-4009, (6-Ethyl-pyridin-3-yl)-[6-fluoro-5-(4-methyl-7H-pyrrolo[2,3-d]pyrimidin-5-ylmethyl)-pyridin-2-yl]-amine]
< 1	> 10	COc1ncnc2[nH]cc(Cc3ccc(Nc4ccc(C)nc4)nc3F)c12 [Compound P-4010, [6-Fluoro-5-(4-methoxy-7H-pyrrolo[2,3-d]pyrimidin-5-ylmethyl)-pyridin-2-yl]-(6-methyl-pyridin-3-yl)-amine]
< 1	5 to 10	CCn1cc(Nc2ccc(Cc3c[nH]c4ncnc(OC)c34)c(F)n2)cn1 [Compound P-4011, (1-Ethyl-1H-pyrazol-4-yl)-[6-fluoro-5-(4-methoxy-7H-pyrrolo[2,3-d]pyrimidin-5-ylmethyl)-pyridin-2-yl]-amine]
< 1	> 10	CCOc1ncnc2[nH]cc(Cc3ccc(Nc4cnn(CC)c4)nc3F)c12 [Compound P-4012, [5-(4-Ethoxy-7H-pyrrolo[2,3-d]pyrimidin-5-ylmethyl)-6-fluoro-pyridin-2-yl]-(1-ethyl-1H-pyrazol-4-yl)-amine]
< 1	< 5	CCn1cc(Nc2ccc(Cc3c[nH]c4ncnc(C)c34)c(F)n2)cn1 [Compound P-4013, (1-Ethyl-1H-pyrazol-4-yl)-[6-fluoro-5-(4-methyl-7H-pyrrolo[2,3-d]pyrimidin-5-ylmethyl)-pyridin-2-yl]-amine]
< 0.1	5 to 10	CCn1cc(Nc2ccc(Cc3c[nH]c4ncnc(OCCOC)c34)c(F)n2)cn1 [Compound P-4014, (1-Ethyl-1H-pyrazol-4-yl)-{6-fluoro-5-[4-(2-methoxy-ethoxy)-7H-pyrrolo[2,3-d]pyrimidin-5-ylmethyl]-pyridin-2-yl}-amine]
< 0.1	> 10	COCCOc1ncnc2[nH]cc(Cc3ccc(Nc4ccc(C)nc4)nc3F)c12 [Compound P-4015, {6-Fluoro-5-[4-(2-methoxy-ethoxy)-7H-pyrrolo[2,3-d]pyrimidin-5-ylmethyl]-pyridin-2-yl}-(6-methyl-pyridin-3-yl)-amine]
< 0.1	> 10	CCc1ccc(Nc2ccc(Cc3c[nH]c4ncnc(OCCOC)c34)c(F)n2)cn1 [Compound P-4016, (6-Ethyl-pyridin-3-yl)-{6-fluoro-5-[4-(2-methoxy-ethoxy)-7H-pyrrolo[2,3-d]pyrimidin-5-ylmethyl]-pyridin-2-yl}-amine]
< 0.1	> 10	CCOc1ncnc2[nH]cc(Cc3ccc(Nc4ccc(C)nc4)nc3F)c12 [Compound P-4017, [5-(4-Ethoxy-7H-pyrrolo[2,3-d]pyrimidin-5-ylmethyl)-6-fluoro-pyridin-2-yl]-(6-methyl-pyridin-3-yl)-amine]

Source: patent US8901118B2, “Compounds and methods for kinase modulation, and indications therefor” (Plexxikon Inc., priority 2010, dated 2014)
